Laboratory results: the kinase profiling compilation of Christmann-Franck et al. (2016)

Columns and labels:
Test in all cases: radiometric filter-binding kinase assay, Kinase HotSpot
Settings in all cases: compound 0.5 µM; ATP 10 µM
FGFR1 (human) = FGFR1 (human) (UniProt P11362)
MAPK10 (human) = MAPK10 (human) (UniProt P53779)
PASK (human) = PASK (human) (UniProt Q96RG2)
CDK1 CCNB1 (human) = CDK1 CCNB1 (human) (UniProt P06493+P14635)
TAOK1 (human) = TAOK1 (human) (UniProt Q7L7X3)
EPHB1 (human) = EPHB1 (human) (UniProt P54762)
FGFR4 (human) = FGFR4 (human) (UniProt P22455)
RPS6KA1 KD1 KD2 (human) = RPS6KA1 KD1 KD2 (human) (UniProt Q15418)
Sequence of RPS6KA1 KD1 KD2 (human) (Q15418 whole entry, looked up): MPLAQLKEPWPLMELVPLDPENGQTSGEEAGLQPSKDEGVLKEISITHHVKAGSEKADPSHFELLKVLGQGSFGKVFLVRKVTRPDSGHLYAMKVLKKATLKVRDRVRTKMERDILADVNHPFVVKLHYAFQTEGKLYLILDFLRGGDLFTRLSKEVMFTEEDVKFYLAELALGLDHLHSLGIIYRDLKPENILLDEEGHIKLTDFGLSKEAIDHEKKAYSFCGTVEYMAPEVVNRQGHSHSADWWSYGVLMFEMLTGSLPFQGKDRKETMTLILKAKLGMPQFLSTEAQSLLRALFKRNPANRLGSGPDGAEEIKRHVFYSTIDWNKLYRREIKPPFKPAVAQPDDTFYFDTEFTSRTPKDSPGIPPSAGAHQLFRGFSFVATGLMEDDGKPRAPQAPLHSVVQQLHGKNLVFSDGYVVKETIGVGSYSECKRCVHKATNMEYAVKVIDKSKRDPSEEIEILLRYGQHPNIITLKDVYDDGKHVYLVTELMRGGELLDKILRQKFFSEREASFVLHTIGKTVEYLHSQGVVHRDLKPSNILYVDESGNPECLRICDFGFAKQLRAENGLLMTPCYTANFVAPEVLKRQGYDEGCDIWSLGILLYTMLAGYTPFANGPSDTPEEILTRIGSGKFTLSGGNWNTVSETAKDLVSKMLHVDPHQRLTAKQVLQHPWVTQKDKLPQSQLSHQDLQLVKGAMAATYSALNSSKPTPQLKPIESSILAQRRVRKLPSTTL

CAMKK1 (human) = CAMKK1 (human) (UniProt Q8N5S9)
CLK4 (human) = CLK4 (human) (UniProt Q9HAZ1)
DYRK1A (human) = DYRK1A (human) (UniProt Q13627)
LIMK1 (human) = LIMK1 (human) (UniProt P53667)
STK10 (human) = STK10 (human) (UniProt O94804)
Sequence of STK10 (human) (O94804 whole entry, looked up): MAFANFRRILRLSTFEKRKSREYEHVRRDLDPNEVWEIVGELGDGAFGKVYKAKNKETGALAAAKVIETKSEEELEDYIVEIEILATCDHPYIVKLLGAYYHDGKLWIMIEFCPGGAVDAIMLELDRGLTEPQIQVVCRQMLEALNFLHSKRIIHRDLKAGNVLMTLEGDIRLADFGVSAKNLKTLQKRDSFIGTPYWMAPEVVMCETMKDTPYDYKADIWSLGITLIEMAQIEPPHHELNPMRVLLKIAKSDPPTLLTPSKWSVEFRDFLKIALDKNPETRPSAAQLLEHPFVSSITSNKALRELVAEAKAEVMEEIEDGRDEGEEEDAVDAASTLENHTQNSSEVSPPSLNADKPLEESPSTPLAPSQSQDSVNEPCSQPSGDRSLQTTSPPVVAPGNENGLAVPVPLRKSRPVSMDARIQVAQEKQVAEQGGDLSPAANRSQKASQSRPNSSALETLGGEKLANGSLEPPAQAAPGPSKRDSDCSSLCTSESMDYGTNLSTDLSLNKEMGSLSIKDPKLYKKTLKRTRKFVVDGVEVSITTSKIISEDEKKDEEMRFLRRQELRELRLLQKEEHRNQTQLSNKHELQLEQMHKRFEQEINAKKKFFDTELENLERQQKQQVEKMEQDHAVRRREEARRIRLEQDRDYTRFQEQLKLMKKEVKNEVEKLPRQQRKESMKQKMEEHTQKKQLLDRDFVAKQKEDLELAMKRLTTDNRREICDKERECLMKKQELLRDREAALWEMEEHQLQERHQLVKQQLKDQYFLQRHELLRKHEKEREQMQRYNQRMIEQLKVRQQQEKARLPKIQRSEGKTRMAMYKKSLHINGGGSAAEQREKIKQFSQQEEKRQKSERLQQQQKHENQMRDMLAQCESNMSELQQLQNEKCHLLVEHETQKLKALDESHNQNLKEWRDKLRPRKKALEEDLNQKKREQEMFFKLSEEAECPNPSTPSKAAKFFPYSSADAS

TAOK3 (human) = TAOK3 (human) (UniProt Q9H2K8)
INSR (human) = INSR (human) (UniProt P06213)
MAPK14 (human) = MAPK14 (human) (UniProt Q16539)
Sequence of MAPK14 (human) (Q16539 whole entry, looked up): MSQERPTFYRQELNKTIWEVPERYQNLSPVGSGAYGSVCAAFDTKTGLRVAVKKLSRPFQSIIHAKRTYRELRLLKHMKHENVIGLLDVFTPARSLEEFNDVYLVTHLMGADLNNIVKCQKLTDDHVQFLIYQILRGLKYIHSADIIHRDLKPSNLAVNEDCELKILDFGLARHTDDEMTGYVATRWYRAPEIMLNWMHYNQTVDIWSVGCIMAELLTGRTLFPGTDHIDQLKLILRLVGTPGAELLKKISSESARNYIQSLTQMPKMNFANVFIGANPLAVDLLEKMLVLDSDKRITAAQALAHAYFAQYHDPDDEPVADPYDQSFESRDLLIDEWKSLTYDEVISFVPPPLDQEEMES

PKN1 (human) = PKN1 (human) (UniProt Q16512)
MARK3 (human) = MARK3 (human) (UniProt P27448)
PRKD1 (human) = PRKD1 (human) (UniProt Q15139)
LRRK2 (human) = LRRK2 (human) (UniProt Q5S007)
FLT1 (human) = FLT1 (human) (UniProt P17948)
RPS6KB1 (human) = RPS6KB1 (human) (UniProt P23443)
TSSK1B (human) = TSSK1B (human) (UniProt Q9BXA7)
CSNK2A2 (human) = CSNK2A2 (human) (UniProt P19784)
STK16 (human) = STK16 (human) (UniProt O75716)
MAP4K2 (human) = MAP4K2 (human) (UniProt Q12851)
CDK5 CDK5R1 p35 (human) = CDK5 CDK5R1 p35 (human) (UniProt Q00535+Q15078)
ABL2 (human) = ABL2 (human) (UniProt P42684)
Sequence of ABL2 (human) (P42684 whole entry, looked up): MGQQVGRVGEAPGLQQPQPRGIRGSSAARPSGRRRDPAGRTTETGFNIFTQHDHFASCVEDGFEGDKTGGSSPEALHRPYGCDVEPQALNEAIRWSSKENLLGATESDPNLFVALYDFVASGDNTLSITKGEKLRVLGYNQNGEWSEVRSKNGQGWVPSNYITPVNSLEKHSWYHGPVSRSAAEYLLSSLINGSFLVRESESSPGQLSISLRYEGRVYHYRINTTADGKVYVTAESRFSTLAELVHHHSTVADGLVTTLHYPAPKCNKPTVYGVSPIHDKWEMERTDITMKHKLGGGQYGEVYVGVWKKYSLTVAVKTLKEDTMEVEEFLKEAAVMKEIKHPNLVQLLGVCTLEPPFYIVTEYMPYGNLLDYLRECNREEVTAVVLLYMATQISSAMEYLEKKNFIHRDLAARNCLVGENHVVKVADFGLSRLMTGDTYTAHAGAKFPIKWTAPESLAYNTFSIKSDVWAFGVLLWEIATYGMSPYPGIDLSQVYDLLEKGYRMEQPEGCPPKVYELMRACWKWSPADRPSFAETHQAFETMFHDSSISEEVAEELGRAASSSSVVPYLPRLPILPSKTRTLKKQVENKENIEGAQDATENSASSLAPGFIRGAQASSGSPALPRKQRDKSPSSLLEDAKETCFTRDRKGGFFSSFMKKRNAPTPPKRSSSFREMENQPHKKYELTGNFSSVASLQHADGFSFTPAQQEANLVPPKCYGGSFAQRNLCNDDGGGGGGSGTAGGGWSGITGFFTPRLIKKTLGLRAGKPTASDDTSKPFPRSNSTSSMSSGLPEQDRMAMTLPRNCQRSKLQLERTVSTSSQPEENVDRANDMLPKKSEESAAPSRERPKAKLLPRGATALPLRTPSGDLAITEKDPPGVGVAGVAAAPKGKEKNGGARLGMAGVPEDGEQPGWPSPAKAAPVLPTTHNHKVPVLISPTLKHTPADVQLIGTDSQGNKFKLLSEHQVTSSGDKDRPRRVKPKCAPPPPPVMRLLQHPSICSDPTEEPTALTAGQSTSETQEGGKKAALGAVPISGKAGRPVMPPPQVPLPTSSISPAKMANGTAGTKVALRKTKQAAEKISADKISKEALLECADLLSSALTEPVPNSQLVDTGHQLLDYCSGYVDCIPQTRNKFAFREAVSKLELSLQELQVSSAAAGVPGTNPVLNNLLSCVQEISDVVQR

NUAK1 (human) = NUAK1 (human) (UniProt O60285)
Sequence of NUAK1 (human) (O60285 whole entry, looked up): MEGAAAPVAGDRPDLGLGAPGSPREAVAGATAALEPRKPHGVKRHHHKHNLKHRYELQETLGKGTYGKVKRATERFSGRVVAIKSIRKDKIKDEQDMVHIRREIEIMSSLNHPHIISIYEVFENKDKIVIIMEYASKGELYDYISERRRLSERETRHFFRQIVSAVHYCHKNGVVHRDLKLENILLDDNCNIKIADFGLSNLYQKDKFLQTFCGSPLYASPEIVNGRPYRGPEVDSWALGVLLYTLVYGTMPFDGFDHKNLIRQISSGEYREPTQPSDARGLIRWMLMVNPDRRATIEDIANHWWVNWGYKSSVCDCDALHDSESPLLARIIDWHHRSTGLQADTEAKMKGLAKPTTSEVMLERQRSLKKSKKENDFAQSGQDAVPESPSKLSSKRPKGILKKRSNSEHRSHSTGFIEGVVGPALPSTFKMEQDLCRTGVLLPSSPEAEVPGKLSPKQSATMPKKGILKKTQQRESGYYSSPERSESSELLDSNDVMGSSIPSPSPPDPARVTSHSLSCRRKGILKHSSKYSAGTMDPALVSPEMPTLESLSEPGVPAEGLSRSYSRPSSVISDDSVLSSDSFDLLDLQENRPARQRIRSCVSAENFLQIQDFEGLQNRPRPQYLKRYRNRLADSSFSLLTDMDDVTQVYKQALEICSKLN

ABL1 (human) = ABL1 (human) (UniProt P00519)
ZAP70 (human) = ZAP70 (human) (UniProt P43403)
TNK2 (human) = TNK2 (human) (UniProt Q07912)
PAK7 (human) = PAK7 (human) (UniProt Q9P286)
RPS6KA6 KD1 KD2 (human) = RPS6KA6 KD1 KD2 (human) (UniProt Q9UK32)
TXK (human) = TXK (human) (UniProt P42681)
Sequence of TXK (human) (P42681 whole entry, looked up): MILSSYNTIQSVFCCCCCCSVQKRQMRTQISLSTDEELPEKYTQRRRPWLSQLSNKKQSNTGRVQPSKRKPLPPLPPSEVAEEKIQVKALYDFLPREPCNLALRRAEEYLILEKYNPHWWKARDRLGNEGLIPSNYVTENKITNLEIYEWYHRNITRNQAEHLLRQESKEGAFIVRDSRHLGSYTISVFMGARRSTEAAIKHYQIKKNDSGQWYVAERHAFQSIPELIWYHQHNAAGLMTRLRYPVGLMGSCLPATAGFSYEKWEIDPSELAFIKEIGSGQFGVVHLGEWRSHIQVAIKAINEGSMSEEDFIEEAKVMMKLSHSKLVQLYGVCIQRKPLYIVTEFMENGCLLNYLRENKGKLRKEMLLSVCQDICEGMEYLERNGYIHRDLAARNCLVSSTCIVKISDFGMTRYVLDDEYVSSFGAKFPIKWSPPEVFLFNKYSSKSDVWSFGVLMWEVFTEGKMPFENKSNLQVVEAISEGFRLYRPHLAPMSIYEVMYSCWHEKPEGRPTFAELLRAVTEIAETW

NTRK2 (human) = NTRK2 (human) (UniProt Q16620)
AKT2 (human) = AKT2 (human) (UniProt P31751)
EPHA7 (human) = EPHA7 (human) (UniProt Q15375)
IGF1R (human) = IGF1R (human) (UniProt P08069)
RAF1 (human) = RAF1 (human) (UniProt P04049)
NEK11 (human) = NEK11 (human) (UniProt Q8NG66)
Sequence of NEK11 (human) (Q8NG66 whole entry, looked up): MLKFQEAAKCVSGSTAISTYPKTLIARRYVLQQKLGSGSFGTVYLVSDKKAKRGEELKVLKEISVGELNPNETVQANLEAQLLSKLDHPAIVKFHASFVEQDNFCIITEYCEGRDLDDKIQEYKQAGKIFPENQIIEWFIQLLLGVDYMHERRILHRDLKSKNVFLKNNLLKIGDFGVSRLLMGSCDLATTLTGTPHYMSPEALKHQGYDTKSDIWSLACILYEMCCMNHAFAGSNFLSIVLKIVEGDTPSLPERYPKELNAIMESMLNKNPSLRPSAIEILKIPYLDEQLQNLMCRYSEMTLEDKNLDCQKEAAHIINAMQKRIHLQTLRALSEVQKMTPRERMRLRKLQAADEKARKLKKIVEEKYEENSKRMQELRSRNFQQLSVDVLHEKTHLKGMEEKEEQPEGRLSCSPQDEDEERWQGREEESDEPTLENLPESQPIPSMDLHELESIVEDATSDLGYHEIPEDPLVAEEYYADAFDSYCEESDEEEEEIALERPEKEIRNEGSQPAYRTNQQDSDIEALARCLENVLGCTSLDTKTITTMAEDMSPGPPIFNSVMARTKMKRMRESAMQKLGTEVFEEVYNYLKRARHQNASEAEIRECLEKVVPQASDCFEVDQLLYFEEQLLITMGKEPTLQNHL

PRKACA (human) = PRKACA (human) (UniProt P17612)

Q: `N/C(=N\N=C/c1ccc(-c2cccc([N+](=O)[O-])c2)o1)N[N+](=O)[O-]` was tested. Which residual activity (FGFR1 (human)) did it give?
A: Its residual activity is 97.6%.

Q: And the residual activity (MAPK10 (human))?
A: Its residual activity is 87%.

Q: What about the residual activity (PASK (human)) of the same compound?
A: The residual activity was 88.4%.

Q: And the residual activity (CDK1 CCNB1 (human))?
A: The residual activity was 87.9%.

Q: And the residual activity (TAOK1 (human))?
A: The residual activity was 89.6%.

Q: What about the residual activity (EPHB1 (human)) of the same compound?
A: Its residual activity is 107%.

Q: And the residual activity (FGFR4 (human))?
A: The residual activity was 106%.

Q: What about the residual activity (RPS6KA1 KD1 KD2 (human)) of the same compound?
A: The residual activity was 86.3%.

Q: And the residual activity (CAMKK1 (human))?
A: Its residual activity is 106%.

Q: And the residual activity (CLK4 (human))?
A: The residual activity was 103%.

Q: And the residual activity (DYRK1A (human))?
A: The residual activity was 95.8%.

Q: What about the residual activity (LIMK1 (human)) of the same compound?
A: The residual activity was 99.7%.

Q: What about the residual activity (STK10 (human)) of the same compound?
A: The residual activity was 99.6%.

Q: And the residual activity (TAOK3 (human))?
A: The residual activity was 99.5%.

Q: What about the residual activity (INSR (human)) of the same compound?
A: Its residual activity is 92%.

Q: What about the residual activity (MAPK14 (human)) of the same compound?
A: Its residual activity is 90.2%.

Q: And the residual activity (PKN1 (human))?
A: The residual activity was 93.9%.

Q: And the residual activity (MARK3 (human))?
A: The residual activity was 107%.

Q: And the residual activity (PRKD1 (human))?
A: The residual activity was 103%.

Q: What about the residual activity (LRRK2 (human)) of the same compound?
A: Its residual activity is 91%.

Q: What about the residual activity (FLT1 (human)) of the same compound?
A: Its residual activity is 97.6%.

Q: What about the residual activity (RPS6KB1 (human)) of the same compound?
A: The residual activity was 100%.

Q: And the residual activity (TSSK1B (human))?
A: The residual activity was 96.7%.

Q: And the residual activity (CSNK2A2 (human))?
A: Its residual activity is 107%.

Q: What about the residual activity (STK16 (human)) of the same compound?
A: The residual activity was 105%.

Q: What about the residual activity (MAP4K2 (human)) of the same compound?
A: The residual activity was 115%.

Q: What about the residual activity (CDK5 CDK5R1 p35 (human)) of the same compound?
A: Its residual activity is 89.2%.

Q: And the residual activity (ABL2 (human))?
A: Its residual activity is 95.7%.

Q: And the residual activity (NUAK1 (human))?
A: Its residual activity is 96.4%.

Q: What about the residual activity (ABL1 (human)) of the same compound?
A: The residual activity was 101%.

Q: And the residual activity (ZAP70 (human))?
A: The residual activity was 93.1%.

Q: And the residual activity (TNK2 (human))?
A: Its residual activity is 99.9%.

Q: And the residual activity (PAK7 (human))?
A: Its residual activity is 97%.

Q: And the residual activity (RPS6KA6 KD1 KD2 (human))?
A: The residual activity was 96.9%.

Q: And the residual activity (TXK (human))?
A: Its residual activity is 98.3%.

Q: And the residual activity (NTRK2 (human))?
A: The residual activity was 82.4%.

Q: What about the residual activity (AKT2 (human)) of the same compound?
A: The residual activity was 99.7%.

Q: What about the residual activity (EPHA7 (human)) of the same compound?
A: Its residual activity is 97.9%.

Q: What about the residual activity (IGF1R (human)) of the same compound?
A: The residual activity was 96.4%.

Q: What about the residual activity (RAF1 (human)) of the same compound?
A: The residual activity was 98.1%.

Q: What about the residual activity (NEK11 (human)) of the same compound?
A: Its residual activity is 110%.

Q: And the residual activity (PRKACA (human))?
A: The residual activity was 93.3%.
